Calls of active or inactive are those of the source. No cut-off for these calls is given here.
Key:
Androgen receptor = molecular target: T1, Androgen receptor (Homo sapiens, UniProt P10275); test: Antagonist activity at Androgen receptor in human LNCaP cells transfected with ARR2PB-eGFP incubated for 3 days by synergy H1 microplate reader analysis; assay type: cell-based
T1 sequence (P10275 whole entry): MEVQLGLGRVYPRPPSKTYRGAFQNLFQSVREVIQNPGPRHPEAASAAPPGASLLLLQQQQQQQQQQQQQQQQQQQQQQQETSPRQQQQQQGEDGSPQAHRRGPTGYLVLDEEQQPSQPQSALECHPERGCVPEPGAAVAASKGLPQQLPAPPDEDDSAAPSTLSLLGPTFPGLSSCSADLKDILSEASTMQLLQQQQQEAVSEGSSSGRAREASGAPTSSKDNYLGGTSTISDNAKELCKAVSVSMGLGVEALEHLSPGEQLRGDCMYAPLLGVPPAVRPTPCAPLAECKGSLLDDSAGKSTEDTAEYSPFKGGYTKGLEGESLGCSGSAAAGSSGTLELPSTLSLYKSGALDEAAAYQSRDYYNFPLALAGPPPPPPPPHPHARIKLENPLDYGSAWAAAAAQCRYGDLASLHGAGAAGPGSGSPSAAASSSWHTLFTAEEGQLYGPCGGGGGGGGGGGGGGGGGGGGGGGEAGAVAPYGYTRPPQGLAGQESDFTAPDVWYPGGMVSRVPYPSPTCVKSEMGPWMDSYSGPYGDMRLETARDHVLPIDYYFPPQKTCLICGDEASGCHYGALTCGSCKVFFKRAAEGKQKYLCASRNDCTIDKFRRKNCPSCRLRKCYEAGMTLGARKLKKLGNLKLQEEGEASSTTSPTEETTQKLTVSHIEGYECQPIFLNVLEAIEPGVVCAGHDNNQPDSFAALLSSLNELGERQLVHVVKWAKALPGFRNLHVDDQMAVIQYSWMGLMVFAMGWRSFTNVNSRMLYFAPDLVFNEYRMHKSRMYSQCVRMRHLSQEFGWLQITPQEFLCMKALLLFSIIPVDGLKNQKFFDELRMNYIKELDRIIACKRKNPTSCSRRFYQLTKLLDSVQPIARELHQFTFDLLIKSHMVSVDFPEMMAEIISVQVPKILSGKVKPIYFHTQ

hERG (KCNH2) = hERG (KCNH2) (Homo sapiens, UniProt Q12809); test: (§1) Inhibition of hERG at 10 uM relative to control; assay type: toxicity
Sequence of hERG (KCNH2) (Q12809 whole entry): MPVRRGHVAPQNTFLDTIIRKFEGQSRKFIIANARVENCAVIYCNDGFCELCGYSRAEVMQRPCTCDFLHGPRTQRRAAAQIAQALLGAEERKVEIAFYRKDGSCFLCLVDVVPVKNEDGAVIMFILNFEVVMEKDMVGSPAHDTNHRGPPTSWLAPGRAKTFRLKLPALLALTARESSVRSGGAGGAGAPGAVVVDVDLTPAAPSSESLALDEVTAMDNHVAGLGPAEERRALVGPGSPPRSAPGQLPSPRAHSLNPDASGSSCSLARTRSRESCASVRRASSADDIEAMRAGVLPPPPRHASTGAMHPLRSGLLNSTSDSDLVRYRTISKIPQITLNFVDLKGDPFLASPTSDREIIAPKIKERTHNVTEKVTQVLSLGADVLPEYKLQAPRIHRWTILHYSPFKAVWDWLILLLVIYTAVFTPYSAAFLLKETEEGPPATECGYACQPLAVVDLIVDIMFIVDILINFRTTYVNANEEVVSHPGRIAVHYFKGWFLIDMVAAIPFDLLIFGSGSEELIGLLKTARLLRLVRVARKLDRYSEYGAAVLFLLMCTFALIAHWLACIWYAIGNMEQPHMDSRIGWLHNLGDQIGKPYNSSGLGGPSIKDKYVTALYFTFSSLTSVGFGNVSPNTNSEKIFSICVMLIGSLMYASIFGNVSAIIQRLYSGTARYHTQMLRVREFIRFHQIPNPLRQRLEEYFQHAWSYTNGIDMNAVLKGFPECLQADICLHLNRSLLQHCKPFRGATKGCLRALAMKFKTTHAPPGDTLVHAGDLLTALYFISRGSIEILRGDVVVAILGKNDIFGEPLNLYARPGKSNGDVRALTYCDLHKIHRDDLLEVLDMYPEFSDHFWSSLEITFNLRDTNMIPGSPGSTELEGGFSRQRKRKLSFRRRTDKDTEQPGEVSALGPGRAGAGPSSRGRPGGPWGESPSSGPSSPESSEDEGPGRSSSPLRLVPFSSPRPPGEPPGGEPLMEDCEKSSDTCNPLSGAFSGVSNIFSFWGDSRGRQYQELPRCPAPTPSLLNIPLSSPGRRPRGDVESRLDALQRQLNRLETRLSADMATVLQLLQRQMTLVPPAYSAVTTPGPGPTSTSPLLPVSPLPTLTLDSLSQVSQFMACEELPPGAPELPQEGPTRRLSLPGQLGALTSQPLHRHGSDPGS

LNCaP [1] = test: Downregulation of FKBP5 level in DHT-induced human LNCaP cells at 0.1 to 1 uM incubated for 24 hrs by Western blot analysis; assay type: functional, cell-based; conditions: dose 0.1-1 µM
LNCaP [2] = test: Antiproliferative activity against human LNCaP cells assessed as inhibition of cell proliferation incubated for 3 days by MTT assay; assay type: functional, cell-based; conditions: 72 h
[3] = Antagonist activity at Androgen receptor F877L/T878A double mutant in human HEK293T cells cotransfected with MMTV-luc and renilla plasmid incubated for 24 hrs by Dual luciferase assay; assay type: cell-based; conditions: HEK-293T
NIH3T3 = test: Antiproliferative activity against mouse 3T3 cells assessed as reduction in cell viability incubated for 3 days by MTT assay; assay type: toxicity, cell-based; conditions: nih3t3, 72 h, time 3 day
[4] = molecular target: Voltage-gated inwardly rectifying potassium channel KCNH2 (Homo sapiens, UniProt Q12809); test: as §1; assay type: toxicity; conditions: 10 µM
Sequence of Voltage-gated inwardly rectifying potassium channel KCNH2 (Q12809 whole entry): as above

LNCaP [5] = test: Antiproliferative activity against human LNCaP cells assessed as survival rate incubated for 3 days by MTT assay; conditions: 72 h
LNCaP C4-2 = test: Antiproliferative activity against human LNCaP C4-2 cells assessed as survival rate incubated for 3 days by MTT assay; conditions: LNCaP C4-2, 72 h
LNCaP C4-2B = test: Antiproliferative activity against human LNCaP C4-2B cells assessed as survival rate incubated for 3 days by MTT assay; conditions: 72 h
[6] = Downregulation of PSA level in human LNCaP cells transfected with ARR2PB-eGFP incubated for 24 hrs by Western blot analysis

| SMILES | IC50 (Androgen receptor) [µM] | further results |
| --- | --- | --- |
| CC(=O)Cc1nsc(NC(=O)c2coc(-c3cccc(C(F)(F)F)c3)c2)n1 | 0.71 |  |
| Cc1oc(-c2cccc(C(F)(F)F)c2)cc1C(=O)Nc1nc(CC(C)N2CCOCC2)ns1 (centres undefined) | 0.032 |  |
| CC(=O)Cc1ccc(NC(=O)c2cc(-c3cccc(C(F)(F)F)c3)oc2C)cc1 | 50 |  |
| Cc1oc(-c2cccc(C(F)(F)F)c2)cc1C(=O)Nc1nc(CC(C)O)ns1 (centres undefined) | 0.029 |  |
| Cc1oc(-c2cccc(C#N)c2)cc1C(=O)Nc1nc(CN2CCOCC2)ns1 | 0.016 | inhibition at 10 µM (hERG (KCNH2)): 47.8% |
| Cc1oc(-c2cccc(C(F)(F)F)c2)cc1C(=O)Nc1nc(CN2CCC(O)C2)ns1 (centres undefined) | 0.47 |  |
| Cc1oc(-c2cccc(C(F)(F)F)c2)cc1C(=O)Nc1nccs1 | 0.45 |  |
| Cc1oc(-c2cccc(C(F)(F)F)c2)cc1C(=O)Nc1nc(CN2CCCCC2)ns1 | 0.024 | inhibition at 10 µM (hERG (KCNH2)): 95.5% |
| Cc1oc(-c2cccc(OC(F)F)c2)cc1C(=O)Nc1nc(CN2CCOCC2)ns1 | 0.016 | inhibition at 10 µM (hERG (KCNH2)): 68.3% |
| Cc1oc(-c2cccc(C(F)(F)F)c2)cc1C(=O)Nc1ncns1 | 0.18 |  |
| Cc1oc(-c2cccc(C(F)(F)F)c2)cc1C(=O)Nc1nc(CN2CCCC2)ns1 | 0.061 |  |
| Cc1oc(-c2cccc(C(F)(F)F)c2)cc1C(=O)Nc1nc(CN2CCC(CO)CC2)ns1 | 0.16 | Activity (LNCaP [1]): Active |
| Cc1oc(-c2ccc(F)c(C(F)(F)F)c2)cc1C(=O)Nc1nc(CN2CCOCC2)ns1 | 0.026 |  |
| Cc1oc(-c2cccc(C(F)(F)F)c2)cc1C(=O)Nc1nc(CN2CCC(C(C)(C)O)CC2)ns1 | 0.27 |  |
| Cc1oc(-c2cccc(C(F)(F)F)c2Cl)cc1C(=O)Nc1nc(CN2CCOCC2)ns1 | 0.86 |  |
| CC(Cc1nsc(NC(=O)c2cc(-c3cccc(C(F)(F)F)c3)oc2C)n1)=C(F)F | 0.28 |  |
| Cc1oc(-c2cccc(C(F)(F)F)c2)cc1C(=O)Nc1nc(CC(C)N2CCCCC2)ns1 (centres undefined) | 0.45 |  |
| Cc1oc(-c2cccc(C(F)(F)F)c2)cc1C(=O)Nc1nc(CC(C)N(C)C)ns1 (centres undefined) | 0.28 |  |

| SMILES | IC50 (Androgen receptor) [µM] | further results |
| --- | --- | --- |
| Cc1oc(-c2cccc(C(F)(F)F)c2)cc1C(=O)Nc1nc(CC(C)N2CCCC2)ns1 (centres undefined) | 0.024 | inhibition at 10 µM (hERG (KCNH2)): 93.5% |
| Cc1oc(-c2cccc(C(F)(F)F)c2)cc1C(=O)Nc1nc(CC(C)N2CCN(C)CC2)ns1 (centres undefined) | 0.036 |  |
| Cc1oc(-c2cc(C(F)(F)F)ccc2Cl)cc1C(=O)Nc1nc(CN2CCOCC2)ns1 | 0.029 | IC50 (LNCaP [2]): 3.27 µM; inhibition at 10 µM (hERG (KCNH2)): 8% |
| CC(=O)Cc1nsc(NC(=O)c2cc(-c3cccc(C(F)(F)F)c3)sc2C)n1 | 9.2 |  |
| Cc1oc(-c2cccc(C(F)(F)F)c2F)cc1C(=O)Nc1nc(CN2CCOCC2)ns1 | 0.2 |  |
| Cc1oc(-c2cccc(C(F)(F)F)c2)cc1C(=O)Nc1nc(CN2CCC(O)CC2)ns1 | 0.14 |  |
| CC(=O)Cc1nsc(NC(=O)c2cc(-c3cccc(C(F)(F)F)c3)oc2C(F)(F)F)n1 | 8.4 |  |
| Cc1oc(-c2ccc(Cl)c(C(F)(F)F)c2)cc1C(=O)Nc1nc(CN2CCOCC2)ns1 | 0.035 | inhibition at 10 µM (hERG (KCNH2)): 51.3% |
| CC(O)c1cc(C(=O)N[C@@H](C)Cn2ccc(-c3ccc(C#N)c(Cl)c3)n2)n[nH]1 (some centres undefined) [DAROLUTAMIDE] |  | IC50 [3]: 0.67 µM |
| Cc1oc(-c2cccc(C(F)(F)F)c2)cc1C(=O)Nc1nc(CN2CCN(C)CC2)ns1 | 0.074 |  |
| Cc1oc(-c2cc(C(F)(F)F)ccc2F)cc1C(=O)Nc1nc(CN2CCOCC2)ns1 | 0.018 | IC50 (LNCaP [2]): 2.75 µM; inhibition at 10 µM (hERG (KCNH2)): 21% |
| Cc1oc(-c2cc(F)cc(C(F)(F)F)c2)cc1C(=O)Nc1nc(CN2CCOCC2)ns1 |  | Activity (NIH3T3): Non-toxic; inhibition at 10 µM (hERG (KCNH2)): 16.4% |
| CNC(=O)c1ccc(N2C(=S)N(c3ccc(C#N)c(C(F)(F)F)c3)C(=O)C2(C)C)cc1F [ENZALUTAMIDE] |  | IC50 (LNCaP [2]): 12.4 µM; inhibition (INH) [4]: Not_active; IC50 (LNCaP [5]): 27.7 µM; IC50 (LNCaP C4-2): 27.7 µM; IC50 (LNCaP C4-2B): 16.3 µM; IC50 [6]: 0.52 µM |
| CC(=O)Cc1nsc(NC(=O)c2cc(-c3cccc(C(F)(F)F)c3)oc2C)n1 | 0.15 |  |
| Cc1oc(-c2cccc(C(F)(F)F)c2)cc1C(=O)Nc1nc(CN2CCCC(O)C2)ns1 (centres undefined) | 0.15 |  |
| Cc1oc(-c2cc(Cl)cc(C(F)(F)F)c2)cc1C(=O)Nc1nc(CN2CCOCC2)ns1 | 0.26 |  |
| COc1cccc(-c2cc(C(=O)Nc3nc(CN4CCOCC4)ns3)c(C)o2)c1 | 0.022 | inhibition at 10 µM (hERG (KCNH2)): 36.9% |
| Cc1oc(-c2cccc(OC(F)(F)F)c2)cc1C(=O)Nc1nc(CN2CCOCC2)ns1 | 0.019 | inhibition at 10 µM (hERG (KCNH2)): 47.3% |

Reference: ChEMBL document CHEMBL6120968, “Discovery of Thiadiazoleamide Derivatives as Potent, Selective, and Orally Available Antagonists Disrupting Androgen Receptor Homodimer” (J Med Chem, 2024)
